By pKd is commonly meant the Kd on a negative log10 scale, so that one unit is a factor of ten. Read a high pKd as a small Kd. What is called pIC50 is the IC50 on a negative log10 scale, so that one unit is a factor of ten. What is called viability is a per cent measure of how many cells are alive, often set against a control.

Structures are written as SMILES. pIC50, pKd: −log10 of the molar value. Where two headings read alike, the source gives them in different places.

The values below come from PMC10388363, “Novel 1,4-Dihydropyridines as Specific Binders and Activators of SIRT3 Impair Cell Viability and Clonogenicity and Downregulate Hypoxia-Induced Targets in Cancer Cells” (Journal of Medicinal Chemistry, 2023).

The target of one experiment is T1, human SIRT3 (Homo sapiens, UniProt Q9NTG7).
T1 construct: pET151D/Topo (Sirt3-114-380 and Sirt5-34-302); His tag (N, cleaved yes); made in house; host or cells: Escherichia coli
T1 sequence (Q9NTG7 114-380): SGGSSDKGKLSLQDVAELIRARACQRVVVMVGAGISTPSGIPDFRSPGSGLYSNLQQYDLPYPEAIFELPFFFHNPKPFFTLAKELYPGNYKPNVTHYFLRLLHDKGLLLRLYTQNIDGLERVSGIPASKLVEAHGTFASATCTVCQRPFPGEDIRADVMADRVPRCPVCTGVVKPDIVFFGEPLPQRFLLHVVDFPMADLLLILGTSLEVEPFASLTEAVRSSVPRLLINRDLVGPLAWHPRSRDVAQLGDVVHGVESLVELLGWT
The experiment is described as follows: Surface plasmon resonance binding assay, immobilized SIRT3. The settings on record: SPR, Scatchard analysis, analytes 5-80 μM. As for the experimental part:
Next, surface plasmon resonance (SPR) experiments were conducted with selected SIRT3 activators 2e and 3a–d to ascertain their biophysical interaction with the human SIRT3 protein. Their parental compounds 2 and 3, together with honokiol, were used as positive controls. The experiments were carried out twice at different concentrations (5, 10, 20, 40, and 80 μM), by injecting the compounds at increasing doses (Figure 5). The resonance units (RU) increase with respect to baseline indicates the formation of the SIRT3/ligand complex, the plateau region represents the steady-state phase of the interaction (RUeq, RU at equilibrium) and the decrease in RU after 180 s represents dissociation of analytes from the immobilized SIRT3 protein after injection of the buffer.
SPR experiments were carried out using a SensiQ Pioneer system (SensiQ, Oklahoma City, OK, USA), essentially as in Genovese et al. 2020[84] and in Battista et al. 2021,[85] with some modifications, as follows.
The sensor chip (COOH5) was chemically activated by a 35 μL injection of a 1:1 mixture of […] (200 mM) and N-hydroxysuccinimide (50 mM) at a flow rate of 5 μL/min. Sirtuin3 (ligand) was immobilized on activated sensor chips via amine coupling. Immobilization was carried out in 20 mM sodium acetate at pH 4.0; unreacted groups were blocked by injecting 1 M ethanolamine hydrochloride (35 μL). Sirtuin3 immobilization level obtained was 1500–4000 RU.
The analytes, dissolved in 100% DMSO at 10 mM concentration, were diluted in buffer 20 mM Hepes, 150 mM NaCl, 0.005% surfactant P20 buffer (HBSP) to a concentration of 200 μM (2% final DMSO concentration), further diluted in HBSP + 2% DMSO (HBSP2%D) and injected on the sensor chip at a constant flow rate (nominal flow rate = 30 μL/min) at the following concentrations: 5, 10, 20, 40, and 80 μM.
The RU increase relative to baseline indicates complex formation (taking place at known analytes concentrations at each moment in the gradient); the plateau region represents the steady-state phase of the interaction (RUeq); and the decrease in RU after 180 s represents dissociation of analytes from the immobilized Sirtiun3 after injection of HBSP2%D. Regeneration procedures are based on two long (2000 and 500 s) injections of buffer, separated by a brief (5 s) injection of 10 mM NaOH.
Control experiments were performed in sensor chips treated as described above in the absence of an immobilized ligand. Kinetic evaluation of the sensorgrams was obtained using the SensiQ Qdat program and full fitting with 1, 2, and 3 sites; Scatchard analysis was used to determine apparent KD values.
(SPR reads the build-up and loss of mass on a sensor chip optically.)

In a further experiment the test system is CAL-62 cells. The experiment is described as follows: Cell viability / cell death, trypan blue exclusion, CAL-62. Format: cell-based. The following applies: for pIC50: read-out: IC50 cell viability reduction.
For another experiment, the system named is MDA-MB-231 cells. The experiment is described as follows: Cell viability / cell death, trypan blue exclusion, MDA-MB-231. Format: cell-based, human.

On human SIRT3, `CCOC(=O)C1=CN(C(=O)c2ccc(OC)c(OC)c2)C=C(C(=O)OCC)C1c1ccccc1` [Compound 3c, Diethyl 1-(3,4-dimethoxybenzoyl)-4-phenyl-1,4-dihydropyridine-3,5-dicarboxylate] had a pKd of 4.54.
As for `CCOC(=O)C1=CN(C(=O)c2cc(OC)cc(OC)c2)C=C(C(=O)OCC)C1c1ccccc1` [Compound 3d, Diethyl 1-(3,5-dimethoxybenzoyl)-4-phenyl-1,4-dihydropyridine-3,5-dicarboxylate], the “Cell death (%) T24” value in the experiment on CAL-62 cells (CAL-62, 5 μM, 24 h) is on record as 14,3%; with CAL-62 cells (CAL-62, 10 μM, 24 h), 20,4%; in the experiment with CAL-62 cells (CAL-62, 25 μM, 24 h), 25,6%; in the experiment with MDA-MB-231 cells (MDA-MB-231, 5 μM, 24 h), 25,9%; with MDA-MB-231 cells (MDA-MB-231, 10 μM, 24 h), 43,8%; in the experiment on MDA-MB-231 cells (MDA-MB-231, 25 μM, 24 h), 57,2%. Moreover, the “Cell death (%) T48” value in the experiment on CAL-62 cells (CAL-62, 5 μM, 48 h) is 21,7%; in the experiment on CAL-62 cells (CAL-62, 25 μM, 48 h), 66,1%; in the experiment with MDA-MB-231 cells (MDA-MB-231, 5 μM, 48 h), 48,3%; in the experiment with MDA-MB-231 cells (MDA-MB-231, 25 μM, 48 h) it was 78,8%. The “higher efficacy in hypoxia than in normoxia (cell viability reduction and cell death induction)” value with CAL-62 cells (CAL-62, 48 h) turned out to be 4.8 fold. In addition, the pIC50 in the experiment with CAL-62 cells (Homo sapiens, CAL-62, 48 h, hypoxia) was around 5.46; with CAL-62 cells (Homo sapiens, CAL-62, 48 h, normoxia) it was around 4.78. The viability at 5 µM with CAL-62 cells (Homo sapiens, CAL-62, 5 μM, 24 h, read-out: Cell viability (%) T24) is 85.7%; with CAL-62 cells (Homo sapiens, CAL-62, 5 μM, 48 h, read-out: Cell viability (%) T48), 78.3%; in the experiment on MDA-MB-231 cells (Homo sapiens, MDA-MB-231, 5 μM, 24 h, read-out: Cell viability (%) T24) it was 74.1%; in the experiment on MDA-MB-231 cells (Homo sapiens, MDA-MB-231, 5 μM, 48 h, read-out: Cell viability (%) T48), 51.7%. In addition, the viability at 10 µM in the experiment with CAL-62 cells (Homo sapiens, CAL-62, 10 μM, 48 h, read-out: Cell viability (%) T48) came to 63.5%; with MDA-MB-231 cells (Homo sapiens, MDA-MB-231, 10 μM, 24 h, read-out: Cell viability (%) T24) it was 56.2%. Besides, the viability at 25 µM amounted to 74.4% in the experiment with CAL-62 cells (Homo sapiens, CAL-62, 25 μM, 24 h, read-out: Cell viability (%) T24); 33.8% in the experiment with CAL-62 cells (Homo sapiens, CAL-62, 25 μM, 48 h, read-out: Cell viability (%) T48); 42.8% with MDA-MB-231 cells (Homo sapiens, MDA-MB-231, 25 μM, 24 h, read-out: Cell viability (%) T24); 21.1% with MDA-MB-231 cells (Homo sapiens, MDA-MB-231, 25 μM, 48 h, read-out: Cell viability (%) T48).
